SMILES strings stand for the structures.

Series [1] concerns transformed human keratinocyte cell line (FEP 1811). Put plainly: Clonogenic survival cell culture assay for cytotoxicity (un-irradiated cells). The series is classed as cell-based. The note with it: un-irradiated FEP 1811 cells, one hour drug incubation, colonies counted after eight days; concentrations in FIG. 1 plotted in μM; read-out: cytotoxicity C50 (drug concentration corresponding to 50% survival). On the procedure:
(§1) The assay involves the transformed human keratinocyte cell line (FEP 1811) (as described by Smith et al (6)) and evaluation of cytotoxicity and radioprotective activity using the clonogenic survival endpoint. The details are described in detail in Martin et al (4) (the disclosure of which is included herein in its entirety by way of reference), but briefly, mid-log phase monolayer cultures are incubated with various concentrations of the test drugs for one hour, after which the monolayers are washed and dispersed into single cell suspensions using pronase, and finally appropriate numbers of cells are dispensed into Petri dishes. Colonies are counted after eight days incubation. For radioprotection studies, the monolayer cultures are irradiated in a ^137Cs-Gamma-cell radiation source to a dose of 12 Gy. The irradiation (with a dose rate of 0.6 Gy per minute) is started 30 minutes after addition of the test drug. After completion of irradiation, incubation of cultures is continued until the total time of exposure to the drug reaches 60 minutes. Cultures are then washed and plated for clonogenic survival as described for the cytotoxicity experiments. The experiments include untreated cultures as controls, and the plating efficiency of these controls is used to adjust that of the test cultures, in order to calculate the overall clonogenic survival.
In general each experiment involves investigation of 4 or 5 different test concentrations of the drug under study, with and without irradiation. The data analysis for the experiments with un-irradiated cells generates curves showing the relationship between cell survival and drug concentration (FIG. 1), from which the drug concentration corresponding to 50% survival (C50) is determined.

Series [2] shares this test system. Put plainly: Clonogenic survival cell culture assay for radioprotective activity (cells irradiated to 12 Gy). Particulars: FEP 1811 cells, 12 Gy 137Cs gamma at 0.6 Gy per minute, irradiation started 30 minutes after drug addition, total drug exposure 60 minutes. The series is classed as cell-based. As to the method:
as §1
However, for some of the compounds, the survival decreases at higher drug concentrations, due to cytotoxicity. Non-linear regression analysis of the data, for example that in FIG. 2, generates a parameter denoted the protection factor (PF), which is the ratio of the maximum survival to the radiation-only (zero drug) survival. PF is therefore a measure of radioprotective efficacy. The C50 and PF values, and for a number of the compounds are collected in Table 1, with standard deviations (SD) for those compounds that have been studied in replicate experiments.

As for `CN1CCN(c2ccc3[nH]c(-c4ccc5[nH]c(-c6ccc(N(C)C)cc6F)nc5c4)nc3c2)CC1` [Example 1, 4-dimethylamino-2-fluoro-1-(5′-(5″-(4′″-methylpiperazin-1′″-yl)benzimidazol-2″-yl)benzimidazol-2′-yl)benzene], the IC50 in series [1] is 28 µM. In addition, the “radioprotection PF (protection factor: ratio of the maximum survival to the radiation-only (zero drug) survival)” value in series [2] came out at 9.3.
In the same order, the values of `CN1CCN(c2ccc3[nH]c(-c4ccc5[nH]c(-c6c(F)cc(N(C)C)cc6F)nc5c4)nc3c2)CC1` [Example 2, 2,6-difluoro-4-dimethylamino-1-(5′-(5″-(4′″-methylpiperazin-1′″-yl)benzimidazol-2″-yl)benzimidazol-2′-yl)benzene] are 25 µM and 6.4.
In the same order, the values of `CNc1ccc(-c2nc3cc(-c4nc5cc(N6CCN(C)CC6)ccc5[nH]4)ccc3[nH]2)c(F)c1` [Example 3, 2-fluoro-4-methylamino-1-(5′-(5″-(4′″-methylpiperazin-1′″-yl)benzimidazol-2″-yl)benzimidazol-2′-yl)benzene] are 218 µM and 7.
Turning to `CN1CCN(c2ccc3[nH]c(-c4ccc5[nH]c(-c6ccc(N(C)C)cc6Cl)nc5c4)nc3c2)CC1` [Example 4, 2-chloro-4-dimethylamino-1-(5′-(5″-(4′″-methylpiperazin-1′″-yl)benzimidazol-2″-yl)benzimidazol-2′-yl)benzene], in series [1], the IC50 is 18 µM. In addition, the “radioprotection PF (protection factor: ratio of the maximum survival to the radiation-only (zero drug) survival)” value in series [2] is recorded as 5.5.
Take `COc1ccc(-c2nc3cc(-c4nc5cc(N6CCN(C)CC6)ccc5[nH]4)ccc3[nH]2)cc1F` [Example 5, 3-fluoro-4-methoxy-1-(5′-(5″-(4′″-methylpiperazin-1′″-yl)benzimidazol-2″-yl)benzimidazol-2′-yl)benzene]: the IC50 in series [1] stood at 91 µM. For the same molecule, the “radioprotection PF (protection factor: ratio of the maximum survival to the radiation-only (zero drug) survival)” value in series [2] is 2.1.
For `CN1CCN(c2ccc3[nH]c(-c4ccc5[nH]c(-c6ccc(F)cc6)nc5c4)nc3c2)CC1` [Example 6, 4-fluoro-1-{5′-[5″-(4′″-methylpiperazin-1′″-yl)benzimidazol-2″-yl]benzimidazol-2′-yl}benzene] the same measures were 34 µM and 4.5.
Take `CN1CCN(c2ccc3[nH]c(-c4ccc5[nH]c(-c6ccc(N(C)C)c(F)c6)nc5c4)nc3c2)CC1` [Example 7, 4-dimethylamino-3-fluoro-1-(5′-(5″-(4′″-methylpiperazin-1′″-yl)benzimidazol-2″-yl)benzimidazol-2′-yl)benzene]: the IC50 in series [1] amounted to 26 µM. Further, the “radioprotection PF (protection factor: ratio of the maximum survival to the radiation-only (zero drug) survival)” value in series [2] is 3.2.
With `CNc1ccc(F)c(-c2nc3cc(-c4nc5cc(N6CCN(C)CC6)ccc5[nH]4)ccc3[nH]2)c1` [Example 8, 2-fluoro-5-methylamino-1-(5′-(5″-(4′″-methylpiperazin-1′″-yl)benzimidazol-2″-yl)benzimidazol-2′-yl)benzene], the IC50 in series [1] worked out at 151 µM. In series [2], the “radioprotection PF (protection factor: ratio of the maximum survival to the radiation-only (zero drug) survival)” value is reported as 15.5.
As for `CN1CCN(c2ccc3[nH]c(-c4ccc5[nH]c(-c6cc(N(C)C)ccc6F)nc5c4)nc3c2)CC1` [Example 9, 5-dimethylamino-2-fluoro-1-(5′-(5″-(4′″-methylpiperazin-1′″-yl)benzimidazol-2″-yl)benzimidazol-2′-yl)benzene], the IC50 in series [1] is 21.9 µM. Also, the “radioprotection PF (protection factor: ratio of the maximum survival to the radiation-only (zero drug) survival)” value in series [2] is listed as 16.7.
Regarding `CNc1cc(F)c(-c2nc3cc(-c4nc5cc(N6CCN(C)CC6)ccc5[nH]4)ccc3[nH]2)cc1F` [Example 10, 2,5-difluoro-4-methylamino-1-(5′-(5″-(4′″-methylpiperazin-1′″-yl)benzimidazol-2″-yl)benzimidazol-2′-yl)benzene], the IC50 in series [1] worked out at 51.4 µM. Besides, the “radioprotection PF (protection factor: ratio of the maximum survival to the radiation-only (zero drug) survival)” value in series [2] came to 9.62.
Consider `Cc1cc(N(C)C)ccc1-c1nc2ccc(-c3nc4ccc(N5CCN(C)CC5)cc4[nH]3)cc2[nH]1` [methylproamine, reference compound], for which, in series [1], the IC50 worked out at 19.3 µM. For the same molecule, the “radioprotection PF (protection factor: ratio of the maximum survival to the radiation-only (zero drug) survival)” value in series [2] is given as 10.

The record behind these values is patent publication US8796277B2, “Radioprotector compounds and related methods” (Peter MacCallum Cancer Institute, priority 2006, dated 2014).
